From EPA's ToxValDB 9.5 (doi:10.2903/j.efsa.2009.191r)

How the values were obtained:
[1] = test system: Oncorhynchus mykiss; conditions: acute; duration: 96 hours; mortality
[2] = test system: Daphnia magna; conditions: acute; duration: 48 hours; mortality
[3] = test system: Colinus virginianus; conditions: acute, oral, mortality; for LC50: diet
[4] = test system: Canidae; conditions: chronic; duration: 1 years; oral; Dog Other; clinical signs
[5] = test system: Apis mellifera; conditions: acute, mortality
[6] = test system: Rattus norvegicus; conditions: acute; oral; mortality
[7] = test system: Anas platyrhynchos; conditions: short-term; oral; feed; mortality

Structure (SMILES): O=[N+]([O-])c1ccc([O-])cc1.[Na+] [Sodium 4-nitrophenolate]
- LC50 [1]: 25 µg/mL
- LC50 [2]: 27.7 µg/mL
- LC50 [3]: > 1410 mg/kg-day
- LD50 [3]: > 1670 mg/kg-day
- NOAEL [4]: 0.3 mg/kg-day
- LD50 ([5]; dermal): 111 µg/piece
- LD50 ([5]; oral, unspecified): > 61.2 µg/piece
- LD50 [6]: 346 mg/kg-day

Structure (SMILES): COc1ccc([N+](=O)[O-])cc1[O-].[Na+] [Sodium 2-methoxy-5-nitrophenolate]
- LC50 [3]: 1830 mg/kg-day
- LD50 [3]: 2070 mg/kg-day
- NOAEL [4]: 0.3 mg/kg-day
- LD50 ([5]; dermal): > 100 µg/piece
- LD50 ([5]; oral, unspecified): 132 µg/piece
- LD50 [6]: 716 mg/kg-day

Structure (SMILES): O=[N+]([O-])c1ccccc1[O-].[Na+] [Sodium 2-nitrophenolate]
- LC50 [3]: > 2700 mg/kg-day
- LD50 [3]: 1050 mg/kg-day
- LD50 ([5]; dermal): > 100 µg/piece
- LD50 ([5]; oral, unspecified): 124 µg/piece
- LC50 [7]: > 2540 mg/kg-day
- LD50 [6]: 960 mg/kg-day
